Reference: US20200140489A1 (priority 2013, published 2020)
Read-outs that look alike come from different tables or passages of the source. Positions of bridges follow the written chain, without caps; N, C: chain ends. Residues, ends and D or L forms follow the SMILES beside them.

Tests used:
AgrC-II [1] = target: T1, AgrC-II (Staphylococcus aureus, UniProt O33587); type: cell-based, S. aureus; settings: for IC50: read-out: AgrC-II IC50, fluorescence reporter strain
AgrC-III [2] = target: T2, AgrC-III (Staphylococcus aureus, UniProt O33590); type: cell-based, S. aureus; settings: read-out: AgrC-III IC50, fluorescence reporter strain
T2 sequence (O33590 1-425): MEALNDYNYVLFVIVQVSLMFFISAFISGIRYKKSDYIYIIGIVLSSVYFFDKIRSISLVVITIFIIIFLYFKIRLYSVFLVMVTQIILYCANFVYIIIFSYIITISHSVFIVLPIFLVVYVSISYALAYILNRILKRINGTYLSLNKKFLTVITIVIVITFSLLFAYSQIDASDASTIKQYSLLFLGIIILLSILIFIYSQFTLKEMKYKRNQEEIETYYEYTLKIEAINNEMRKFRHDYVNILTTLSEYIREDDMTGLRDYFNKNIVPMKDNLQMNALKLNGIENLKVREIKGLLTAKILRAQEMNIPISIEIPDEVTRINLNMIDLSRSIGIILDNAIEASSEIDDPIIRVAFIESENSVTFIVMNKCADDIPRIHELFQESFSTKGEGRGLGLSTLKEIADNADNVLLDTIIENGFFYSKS

AgrC-III [3] = target: T2, AgrC-III; experiment: Hemolysis assay, wild-type group-III strain MN8, rabbit red blood cells
AgrC-II [4] = target: T1, AgrC-II; experiment: Hemolysis assay, wild-type group-II strain RN6923, rabbit red blood cells; settings: read-out: AgrC-II IC50, hemolysis assay, 200 fM − 10 μM
AgrC-IV [5] = target: T3, AgrC-IV (Staphylococcus aureus, UniProt Q309Z2); experiment: Hemolysis assay, wild-type group-IV strain RN4850, rabbit red blood cells; settings: read-out: AgrC-IV IC50, hemolysis assay, 200 fM − 10 μM
T3 sequence (Q309Z2 1-430): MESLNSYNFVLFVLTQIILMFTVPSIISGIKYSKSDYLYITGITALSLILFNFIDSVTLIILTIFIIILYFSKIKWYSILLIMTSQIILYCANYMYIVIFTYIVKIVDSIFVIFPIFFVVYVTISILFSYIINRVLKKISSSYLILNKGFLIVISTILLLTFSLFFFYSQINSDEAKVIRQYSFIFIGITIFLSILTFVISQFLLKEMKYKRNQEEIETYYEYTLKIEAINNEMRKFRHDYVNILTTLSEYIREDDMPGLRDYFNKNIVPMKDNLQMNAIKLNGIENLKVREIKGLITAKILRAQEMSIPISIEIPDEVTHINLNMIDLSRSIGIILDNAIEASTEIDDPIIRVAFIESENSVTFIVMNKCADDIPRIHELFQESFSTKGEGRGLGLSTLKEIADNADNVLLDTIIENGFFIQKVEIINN

AgrC-I [6] = target: T4, AgrC-I (Staphylococcus aureus, UniProt O07911); type: cell-based, S. aureus; settings: read-out: AgrC-I IC50
T4 sequence (O07911 1-430): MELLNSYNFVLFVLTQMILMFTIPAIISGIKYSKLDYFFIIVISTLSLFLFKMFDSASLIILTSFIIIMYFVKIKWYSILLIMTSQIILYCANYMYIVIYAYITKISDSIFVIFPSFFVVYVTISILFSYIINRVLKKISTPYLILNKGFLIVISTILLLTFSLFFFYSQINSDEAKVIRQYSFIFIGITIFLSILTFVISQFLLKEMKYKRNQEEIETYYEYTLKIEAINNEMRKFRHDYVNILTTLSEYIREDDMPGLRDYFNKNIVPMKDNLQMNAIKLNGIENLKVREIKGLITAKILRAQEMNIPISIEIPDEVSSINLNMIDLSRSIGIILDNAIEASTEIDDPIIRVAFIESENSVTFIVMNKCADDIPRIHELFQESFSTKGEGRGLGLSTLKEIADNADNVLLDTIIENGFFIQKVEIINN

AgrC-IV [7] = target: T3, AgrC-IV; type: cell-based, S. aureus; settings: read-out: AgrC-IV IC50, fluorescence reporter strain
AgrC-I [8] = target: T4, AgrC-I; experiment: Hemolysis assay, wild-type group-I strain RN6390B, rabbit red blood cells; settings: for IC50: read-out: AgrC-I IC50, hemolysis assay, 200 fM − 10 μM
[9] = AIPs tested over 200 fM − 10 μM or (b1) 2.5 pM − 10 μM, triplicate
[10] = read-out: AgrC-III IC50, 200 fM − 10 μM
[11] = second-generation analogues, fluorescence reporter strain, 200 fM − 10 μM
[12] = second-generation analogues, 200 fM − 10 μM
[13] = read-out: AgrC-III IC50, selected second-generation analogues, 200 fM − 10 μM
[14] = selected second-generation analogues

T1 sequence (O33587 1-437): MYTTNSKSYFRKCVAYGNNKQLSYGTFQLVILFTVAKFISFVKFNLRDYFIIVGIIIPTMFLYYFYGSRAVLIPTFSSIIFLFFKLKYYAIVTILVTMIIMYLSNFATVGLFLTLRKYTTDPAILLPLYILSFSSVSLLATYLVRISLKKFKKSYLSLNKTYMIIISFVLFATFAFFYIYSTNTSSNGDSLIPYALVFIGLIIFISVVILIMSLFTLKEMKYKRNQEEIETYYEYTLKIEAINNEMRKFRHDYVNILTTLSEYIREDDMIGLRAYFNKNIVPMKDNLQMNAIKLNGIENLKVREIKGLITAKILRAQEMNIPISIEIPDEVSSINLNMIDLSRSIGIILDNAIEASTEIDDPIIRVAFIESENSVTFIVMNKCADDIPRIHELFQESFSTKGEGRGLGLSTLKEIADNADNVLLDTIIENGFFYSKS

Row | SMILES | IC50 (AgrC-II [1]; [9]) [nM] | IC50 (AgrC-III [2]; [9]) [nM] | IC50 (AgrC-III [3]; [10]) [nM] | IC50 (AgrC-II [4]) [nM] | IC50 (AgrC-IV [5]) [nM] | IC50 (AgrC-I [6]) [nM] | IC50 (AgrC-IV [7]; [9]) [nM] | IC50 (AgrC-I [8]) [nM] | IC50 (AgrC-I [6]; [11]) [nM] | fold change against AgrC-II relative to AIP-III D4A (AgrC-II [1]; gfp reporter) [fold] | IC50 (AgrC-II [1]; [12]) [nM] | IC50 (AgrC-III [2]; [12]) [nM] | IC50 (AgrC-IV [7]; [12]) [nM] | IC50 (AgrC-III [3]; [13]) [nM] | fold lower concentrations inhibiting hemolysis than AIP-III D4A (AgrC-I [8]; group-I) | IC50 (AgrC-I [8]; [14]) [nM] | IC50 (AgrC-II [4]; [14]) [nM] | IC50 (AgrC-IV [5]; [14]) [nM]
1 | CC[C@H](C)[C@@H]1NC(=O)[C@H](Cc2ccccc2)NC(=O)[C@H](CC(=O)O)NC(=O)[C@@H](NC(=O)[C@@H](NC(=O)[C@H](CO)NC(=O)[C@@H](N)Cc2ccc(O)cc2)[C@@H](C)O)CSC(=O)[C@H](CCSC)NC1=O [AIP-I, Y-S-T-(C-D-F-I-M), reference compound] (H-YSTCDFIM; thioester 4-C) | 8 | 0.522 | 6.12 | 3.34 | 189 |  |  |  |  |  |  |  |  |  |  |  |  | 
2 | CC(C)C[C@@H]1NC(=O)[C@H](CO)NC(=O)[C@H](CO)NC(=O)[C@@H](NC(=O)[C@H](C)NC(=O)[C@H](CC(N)=O)NC(=O)[C@@H](NC(=O)CN)C(C)C)CSC(=O)[C@H](Cc2ccccc2)NC1=O [AIP-II, G-V-N-A-(C-S-S-L-F), reference compound] (H-GVNACSSLF; thioester 5-C) |  | 0.532 | 3.59 |  | 1.19 | 1.62 | 0.396 | 0.89 |  |  |  |  |  |  |  |  |  | 
3 | CC(C)C[C@@H]1NC(=O)[C@H](Cc2ccccc2)NC(=O)[C@H](C)NC(=O)[C@@H](NC(=O)[C@H](CC(N)=O)NC(=O)[C@H](C)N)CSC(=O)[C@H](CC(C)C)NC1=O [AIP-III I1A/D4A, A-N-(C-A-F-L-L)] (H-ANCAFLL; thioester 3-C) |  |  |  |  |  |  |  |  | 0.328 | < 5 | 2.35 | 0.28 | 0.101 | 0.551 | eight | 0.0103 | 0.793 | 0.284
4 | CC(C)C[C@@H]1NC(=O)[C@H](Cc2ccccc2)NC(=O)[C@H](C)NC(=O)[C@@H](NC(=O)[C@H](C)NC(=O)[C@H](C)N)CSC(=O)[C@H](CC(C)C)NC1=O [AIP-III I1A/N2A/D4A, A-A-(C-A-F-L-L)] (H-AACAFLL; thioester 3-C) |  |  |  |  |  |  |  |  | 0.304 |  | 0.604 | 0.0734 | 0.0161 | 0.243 |  | 0.0411 | 0.0606 | 0.14
5 | CC[C@H](C)[C@H](N)C(=O)N[C@@H](C)C(=O)N[C@H]1CSC(=O)[C@H](CC(C)C)NC(=O)[C@H](CC(C)C)NC(=O)[C@H](Cc2ccccc2)NC(=O)[C@H](C)NC1=O [AIP-III N2A/D4A, I-A-(C-A-F-L-L)] (H-IACAFLL; thioester 3-C) |  |  |  |  |  |  |  |  | 0.331 |  | 0.204 | 0.0657 | 0.0221 | 0.216 |  | 0.0362 | 0.0661 | 0.122
6 | CC[C@H](C)[C@@H]1NC(=O)[C@H](Cc2ccccc2)NC(=O)[C@H](Cc2ccc(O)cc2)NC(=O)[C@@H](NC(=O)[C@@H](NC(=O)[C@H](CO)NC(=O)[C@@H](N)Cc2ccc(O)cc2)[C@@H](C)O)CSC(=O)[C@H](CCSC)NC1=O [AIP-IV, Y-S-T-(C-Y-F-I-M), reference compound] (H-YSTCYFIM; thioester 4-C) | 0.373 | 0.46 | 1.49 | 0.0897 |  |  |  |  |  |  |  |  |  |  |  |  |  | 
7 | CC(=O)N[C@H]1CSC(=O)[C@H](CC(C)C)NC(=O)[C@H](CC(C)C)NC(=O)[C@H](Cc2c[nH]c3ccccc23)NC(=O)[C@H](C)NC1=O [Ac-(C-A-W-L-L)] (Ac-CAWLL; thioester 1-C) |  |  |  |  |  |  |  |  | 0.909 |  | 1.9 | 0.509 | 0.0363 | 1.08 |  | 0.468 | 0.126 | 0.194
8 | CC[C@H](C)[C@@H]1NC(=O)[C@H](Cc2ccccc2)NC(=O)[C@H](C)NC(=O)[C@@H](NC(C)=O)CSC(=O)[C@H](CCSC)NC1=O [tAIP-I D2A, Ac-(C-A-F-I-M), reference compound] (Ac-CAFIM; thioester 1-C) |  |  | 0.853 | 2.5 | 0.361 |  |  | 1.45 |  |  |  |  |  |  |  |  |  | 
